From US9006139B2, “Active compound combinations” (Bayer Intellectual Property GmbH, priority 2009, dated 2015)
Where two headings read alike, the source gives them in different places.

What was measured:
Format in all cases: in vivo
Phytophthora infestans = test: whole plant or invertebrate; conditions: Phytophthora infestans, 72 h; for pest or weed control at 12.5 ppm: 12.5 ppm a.i.; for pest or weed control at 50 ppm: 50 ppm a.i.; for pest or weed control at 10 ppm: 10 ppm a.i.; for pest or weed control at 20 ppm: 20 ppm a.i.
Plasmopara viticola = test: Plasmopara test (grapevines)/protective; conditions: Table B; 50 ppm a.i.
Procedure: (§1) Solvent: 24.5 parts by weight of acetone
(§2) • 24.5 parts by weight of dimethylacetamide Emulsifier: 1 part by weight of alkylaryl polyglycol ether
(§3) To produce a suitable preparation of active compound, 1 part by weight of active compound is mixed with the stated amounts of solvent and emulsifier, and the concentrate is diluted with water to the desired concentration. To test for protective activity, young plants are sprayed with the preparation of active compound at the stated rate of application. After the spray coating has dried on, the plants are inoculated with an aqueous spore suspension of Plasmopara viticola and then remain for 1 day in an incubation cabinet at approximately 20° C. and a relative atmospheric humidity of 100%. The plant is subsequently placed for 4 days in a greenhouse at approximately 21° C. and a relative atmospheric humidity of approximately 90%. The plants are then misted and placed for 1 day in an incubation cabinet. The test is evaluated 6 days after the inoculation. 0% means an efficacy which corresponds to that of the control, while an efficacy of 100% means that no disease is observed.

Sphaerotheca fuliginea = test: Sphaerotheca test (cucumbers)/protective; conditions: Podosphaera fuliginea, 168 h, Table C, read-out: Efficacy in % found; for pest or weed control at 50 ppm: 50 ppm a.i.; for pest or weed control at 200 ppm: 200 ppm a.i.; for pest or weed control at 100 ppm: 100 ppm a.i.
In short: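 Young cucumber plants sprayed protectively with compound in acetone/dimethylacetamide with emulsifier, water-diluted, at the stated rate. After drying, plants inoculated with Sphaerotheca fuliginea spores and kept at ~23° C and ~70% RH. Efficacy scored at 7 days: 0% = untreated control, 100% = no disease.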

Venturia inaequalis = test: Venturia test (apples)/protective; conditions: Table D
Procedure: as §1, §2
as §3, with “conidia” for “spore”, “the causal agent of apple scab (Venturia inaequalis)” for “Plasmopara viticola”, “plants are then” for “plant is subsequently”, “placed” for “placed for 4 days”, “The” for “The plants are then misted and placed for 1 day in an incubation cabinet. The”, “10” for “6”

[1] = system: Blumeria graminis fsp. tritici; test: Blumeria test (wheat)/preventive; conditions: Table G; 500 ppm a.i.
Procedure: (§4) Solvent: 49 parts by weight of n,n-dimethylacetamid
(§5) Emulsifier: 1 part by weight of alkylaryl polyglycol ether
(§6) To produce a suitable preparation of active compound, 1 part by weight of active compound or active compound combination is mixed with the stated amounts of solvent and emulsifier, and the concentrate is diluted with water to the desired concentration. To test for preventive activity, young plants are sprayed with the preparation of active compound or active compound combination at the stated rate of application. After the spray coating has been dried, the plants are dusted with spores of Blumeria graminis fsp. tritici. The plants are placed in the greenhouse at a temperature of approximately 18° C. and a relative atmospheric humidity of approximately 80% to promote the development of mildew pustules. The test is evaluated 7 days after the inoculation. 0% means an efficacy which corresponds to that of the untreated control, while an efficacy of 100% means that no disease is observed.

Pyrenophora teres = test: Pyrenophora teres-test (barley)/preventive
Procedure: as §4, §5
as §6, with “sprayed” for “dusted”, “a spore suspension” for “spores”, “Pyrenophora teres. The plants remain for 48 hours in an incubation cabinet at approximately 20° C. and a relative atmospheric humidity of approximately 100%.” for “Blumeria graminis fsp. tritici.”, “20°” for “18°”, “80%.” for “80% to promote the development of mildew pustules.”, “8” for “7”

Puccinia triticina = test: Puccinia triticina-test (wheat)/preventive; conditions: Table M; 500 ppm a.i.
Procedure: as §4, §5
as §6, with “sprayed” for “dusted”, “a spore suspension” for “spores”, “Puccinia triticina. The plants remain for 48 hours in an incubation cabinet at approximately 20° C. and a relative atmospheric humidity of approximately 100%.” for “Blumeria graminis fsp. tritici.”, “20°” for “18°”, “80%.” for “80% to promote the development of mildew pustules.”, “8” for “7”

[2] = read-out: Efficacy in % found, Table A, test 1
[3] = read-out: Efficacy in % found, Table A, test 5
[4] = read-out: Efficacy in % found, Table A, test 6

In the case of `Cn1c(=O)c2sc3c(=O)n(C)c(=O)c3sc2c1=O` [(I-1), 2,6-dimethyl-1H,5H-[1,4]dithiino[2,3-c:5,6-c′]dipyrrole-1,3,5,7(2H,6H)-tetrone], the pest or weed control at 12.5 ppm (Phytophthora infestans; [2]) is reported as 0%, the pest or weed control at 25 ppm (Phytophthora infestans; read-out: Efficacy in % found, Table A, test 1, 25 ppm a.i.) is reported as 5% and the pest or weed control at 50 ppm (Phytophthora infestans; [2]) is reported as 18%. For the same molecule, the pest or weed control at 12.5 ppm (Phytophthora infestans; read-out: Efficacy in % found, Table A, test 2) was 35%, the pest or weed control at 50 ppm (Phytophthora infestans; read-out: Efficacy in % found, Table A, test 3) was 36% and the pest or weed control at 50 ppm (Phytophthora infestans; read-out: Efficacy in % found, Table A, test 4) was 47%. It also gave a pest or weed control at 10 ppm (Phytophthora infestans; [3]) of 0%, a pest or weed control at 20 ppm (Phytophthora infestans; [3]) of 0% and a pest or weed control at 10 ppm (Phytophthora infestans; [4]) of 0%. It also gave a pest or weed control at 20 ppm (Phytophthora infestans; [4]) of 9%, a pest or weed control at 40 ppm (Phytophthora infestans; read-out: Efficacy in % found, Table A, test 6, 40 ppm a.i.) of 11% and a pest or weed control at 12.5 ppm (Phytophthora infestans; read-out: Efficacy in % found, Table A, test 7) of 39%. The “Efficacy in % found” value (Plasmopara viticola) was 54%, the pest or weed control at 50 ppm (Sphaerotheca fuliginea; test 1) was 0% and the pest or weed control at 200 ppm (Sphaerotheca fuliginea; test 1) was 30%. The pest or weed control at 50 ppm (Sphaerotheca fuliginea; test 2) was 38%, the pest or weed control at 200 ppm (Sphaerotheca fuliginea; test 2) was 65% and the pest or weed control at 50 ppm (Sphaerotheca fuliginea; test 3) was 20%. For the same molecule, the pest or weed control at 100 ppm (Sphaerotheca fuliginea; test 3) was 30%, the pest or weed control at 100 ppm (Sphaerotheca fuliginea; test 4) was 19% and the “Efficacy in % found” value (Venturia inaequalis; test 1, 12.5 ppm a.i.) was 26%. The “Efficacy in % found” value (Venturia inaequalis; test 1, 25 ppm a.i.) was 72%, the “Efficacy in % found” value (Venturia inaequalis; test 2, 12.5 ppm a.i.) was 14% and the “Efficacy in % found” value [1] was 75%. The “Efficacy in % found” value (Pyrenophora teres; Table I1, 500 ppm a.i.) was 10%, the “Efficacy in % found” value (Pyrenophora teres; Table I1, 1000 ppm a.i.) was 44% and the “Efficacy in % found” value (Pyrenophora teres; Table I2, 1000 ppm a.i.) was 22%. The “Efficacy in % found” value (Puccinia triticina) was 10%.
